Data reported in patent US9040067B2, “Disinfecting and antimicrobial compositions” (priority 2005, dated 2015).

Experiments:
Assay type in all cases: cell-based
Saccharomyces cerevisiae = assay: MIC and MLC against yeast in Sab. broth; settings: for Lethal (MLC) Concentration 1% / Inhibitory (MIC) Concentration 1%: 1% ester; for Lethal (MLC) Concentration 1.5% / Inhibitory (MIC) Concentration 1.5%: 1.5% ester; for Lethal (MLC) Concentration 2% / Inhibitory (MIC) Concentration 2%: 2% ester; for Lethal (MLC) Concentration 3% / Inhibitory (MIC) Concentration 3%: 3% ester; for Lethal (MLC) Concentration 4% / Inhibitory (MIC) Concentration 4%: 4% ester; as to Lethal (MLC) Concentration 1%: key: + = growth (inactive); − = no growth (active); as to Lethal (MLC) Concentration 1.5%: key: + = growth (inactive); − = no growth (active); as to Lethal (MLC) Concentration 2%: key: + = growth (inactive); − = no growth (active); as to Lethal (MLC) Concentration 3%: key: + = growth (inactive); − = no growth (active); as to Lethal (MLC) Concentration 4%: key: + = growth (inactive); − = no growth (active)
Procedure: A 0.1 ml of 1/100 dilution of 48 hr old culture of S. cerevisiae was used as inoculum. The test was performed using Sab. broth. The tubes were incubated at room temperature 25° C. The test was read after 48 hrs.

Listeria monocytogenes = assay: MIC/MLC in brain heart infusion broth; also: key: + = growth (inactive); − = no growth (active)
Procedure: (§1) The tests were carried out in 10 ml of brain heart infusion broth. The esters were serially diluted in brain heart infusion broth of samples of, 0.1, 0.2, 0.3, 0.4 and 0.5/10 ml and challenged with 0.1 ml of 1/100 dilution of 24 hr old brain heart infusion bacterial culture. The lowest concentration determined the minimum inhibitory concentration (MIC). The samples were observed after 48 hrs at 37° C. A loopful from tubes without growth were plated on BHI agar plates and observed for growth for 24 to 48 hrs at 37° C. The samples with the lowest concentration of the ester without bacterial growth on the plates represented the minimum lethal concentration (MLC).
(§2) A series of samples of (a) methyl lactate, (b) ethyl lactate and (c) butyl lactate, alone, and in admixture with varying amounts of decyl lactate and sodium dodecyl sulfates were used to test minimum inhibitory activity (MIC) by the method described in Example II, against the cultures of E. coli 0157 H7, Listeria monocytogenes, Staphylococcus aureus, Salmonella typhi, and Pseudomonas aeruginosa.

Pseudomonas aeruginosa = assay: MIC/MLC in brain heart infusion broth; settings: for MIC, Concentration of Lactic Esters 0.5%: 0.5% ester; for MIC, Concentration of Lactic Esters 1%: 1% ester; for MIC, Concentration of Lactic Esters 2%: 2% ester; for MIC, Concentration of Lactic Esters 3%: 3% ester; for MIC, Concentration of Lactic Esters 4%: 4% ester; for MIC, Concentration of Lactic Esters 5%: 5% ester; as to all read-outs here: key: + = growth (inactive); − = no growth (active)
Procedure: as §1, §2

For `CCCCOC(=O)C(C)O` (stereo not shown) [Butyl lactate, butyl lactate], the “Lethal (MLC) Concentration 1%” value (Saccharomyces cerevisiae) was “−”, the “Inhibitory (MIC) Concentration 1%” value (Saccharomyces cerevisiae; 48 hrs, 25° C) was “−” and the “Inhibitory (MIC) Concentration 1%” value (Saccharomyces cerevisiae; Sodium lauryl sulfate 200 ppm) was “−”. The “Lethal (MLC) Concentration 1%” value (Saccharomyces cerevisiae; Sodium lauryl sulfate 200 ppm) was “−”, the “Lethal (MLC) Concentration 1.5%” value (Saccharomyces cerevisiae) was “−” and the “Inhibitory (MIC) Concentration 1.5%” value (Saccharomyces cerevisiae; 48 hrs, 25° C) was “−”. For the same compound, the “Inhibitory (MIC) Concentration 1.5%” value (Saccharomyces cerevisiae; Sodium lauryl sulfate 200 ppm) was “−”, the “Lethal (MLC) Concentration 1.5%” value (Saccharomyces cerevisiae; Sodium lauryl sulfate 200 ppm) was “−” and the “Lethal (MLC) Concentration 2%” value (Saccharomyces cerevisiae) was “−”. For the same compound, the “Inhibitory (MIC) Concentration 2%” value (Saccharomyces cerevisiae; 48 hrs, 25° C) was “−”, the “Inhibitory (MIC) Concentration 2%” value (Saccharomyces cerevisiae; Sodium lauryl sulfate 200 ppm) was “−” and the “Lethal (MLC) Concentration 2%” value (Saccharomyces cerevisiae; Sodium lauryl sulfate 200 ppm) was “−”. For the same compound, the “Lethal (MLC) Concentration 3%” value (Saccharomyces cerevisiae) was “−”, the “Inhibitory (MIC) Concentration 3%” value (Saccharomyces cerevisiae; 48 hrs, 25° C) was “−” and the “Inhibitory (MIC) Concentration 3%” value (Saccharomyces cerevisiae; Sodium lauryl sulfate 200 ppm) was “−”. For the same compound, the “Lethal (MLC) Concentration 3%” value (Saccharomyces cerevisiae; Sodium lauryl sulfate 200 ppm) was “−”, the “Lethal (MLC) Concentration 4%” value (Saccharomyces cerevisiae) was “−” and the “Inhibitory (MIC) Concentration 4%” value (Saccharomyces cerevisiae; 48 hrs, 25° C) was “−”. For the same compound, the “Inhibitory (MIC) Concentration 4%” value (Saccharomyces cerevisiae; Sodium lauryl sulfate 200 ppm) was “−”, the “Lethal (MLC) Concentration 4%” value (Saccharomyces cerevisiae; Sodium lauryl sulfate 200 ppm) was “−” and the “MLC, Concentration of Butyl lactate 0.5%” value (Listeria monocytogenes; 0.5%) was “+”. The “MLC, Concentration of Butyl lactate 1%” value (Listeria monocytogenes; 1%) was “+”, the “MLC, Concentration of Butyl lactate 2%” value (Listeria monocytogenes; 2%) was “−” and the “MLC, Concentration of Butyl lactate 3%” value (Listeria monocytogenes; 3%) was “−”. For the same compound, the “MLC, Concentration of Butyl lactate 4%” value (Listeria monocytogenes; 4%) was “−”, the “MLC, Concentration of Butyl lactate 5%” value (Listeria monocytogenes; 5%) was “−” and the “MLC, Concentration of Butyl lactate 0.5%” value (Pseudomonas aeruginosa; 0.5%) was “+”. The “MIC, Concentration of Lactic Esters 0.5%” value (Pseudomonas aeruginosa; SDS 0.0 ppm) was “+”, the “MIC, Concentration of Lactic Esters 0.5%” value (Pseudomonas aeruginosa; SDS 50 ppm) was “−” and the “MIC, Concentration of Lactic Esters 0.5%” value (Pseudomonas aeruginosa; SDS 100 ppm) was “−”. For the same compound, the “MIC, Concentration of Lactic Esters 0.5%” value (Pseudomonas aeruginosa; SDS 200 ppm) was “−”, the “MLC, Concentration of Butyl lactate 1%” value (Pseudomonas aeruginosa; 1%) was “+” and the “MIC, Concentration of Lactic Esters 1%” value (Pseudomonas aeruginosa; SDS 0.0 ppm) was “+”. For the same compound, the “MIC, Concentration of Lactic Esters 1%” value (Pseudomonas aeruginosa; SDS 50 ppm) was “−”, the “MIC, Concentration of Lactic Esters 1%” value (Pseudomonas aeruginosa; SDS 100 ppm) was “−” and the “MIC, Concentration of Lactic Esters 1%” value (Pseudomonas aeruginosa; SDS 200 ppm) was “−”. The “MLC, Concentration of Butyl lactate 2%” value (Pseudomonas aeruginosa; 2%) was “+”, the “MIC, Concentration of Lactic Esters 2%” value (Pseudomonas aeruginosa; SDS 0.0 ppm) was “−” and the “MIC, Concentration of Lactic Esters 2%” value (Pseudomonas aeruginosa; SDS 50 ppm) was “−”. For the same compound, the “MIC, Concentration of Lactic Esters 2%” value (Pseudomonas aeruginosa; SDS 100 ppm) was “−”, the “MIC, Concentration of Lactic Esters 2%” value (Pseudomonas aeruginosa; SDS 200 ppm) was “−” and the “MLC, Concentration of Butyl lactate 3%” value (Pseudomonas aeruginosa; 3%) was “−”. For the same compound, the “MIC, Concentration of Lactic Esters 3%” value (Pseudomonas aeruginosa; SDS 0.0 ppm) was “−”, the “MIC, Concentration of Lactic Esters 3%” value (Pseudomonas aeruginosa; SDS 50 ppm) was “−” and the “MIC, Concentration of Lactic Esters 3%” value (Pseudomonas aeruginosa; SDS 100 ppm) was “−”. The “MIC, Concentration of Lactic Esters 3%” value (Pseudomonas aeruginosa; SDS 200 ppm) was “−”, the “MLC, Concentration of Butyl lactate 4%” value (Pseudomonas aeruginosa; 4%) was “−” and the “MIC, Concentration of Lactic Esters 4%” value (Pseudomonas aeruginosa; SDS 0.0 ppm) was “−”. For the same compound, the “MIC, Concentration of Lactic Esters 4%” value (Pseudomonas aeruginosa; SDS 50 ppm) was “−”, the “MIC, Concentration of Lactic Esters 4%” value (Pseudomonas aeruginosa; SDS 100 ppm) was “−” and the “MIC, Concentration of Lactic Esters 4%” value (Pseudomonas aeruginosa; SDS 200 ppm) was “−”. For the same compound, the “MLC, Concentration of Butyl lactate 5%” value (Pseudomonas aeruginosa; 5%) was “−”, the “MIC, Concentration of Lactic Esters 5%” value (Pseudomonas aeruginosa; SDS 0.0 ppm) was “−” and the “MIC, Concentration of Lactic Esters 5%” value (Pseudomonas aeruginosa; SDS 50 ppm) was “−”. The “MIC, Concentration of Lactic Esters 5%” value (Pseudomonas aeruginosa; SDS 100 ppm) was “−” and the “MIC, Concentration of Lactic Esters 5%” value (Pseudomonas aeruginosa; SDS 200 ppm) was “−”.
In the case of `COC(=O)C(C)O` (stereo not shown) [Methyl lactate, methyl lactate], the “Lethal (MLC) Concentration 1%” value (Saccharomyces cerevisiae) is reported as “+”, the “Inhibitory (MIC) Concentration 1%” value (Saccharomyces cerevisiae; 48 hrs, 25° C) is reported as “+” and the “Inhibitory (MIC) Concentration 1%” value (Saccharomyces cerevisiae; Sodium lauryl sulfate 200 ppm) is reported as “+”. For the same compound, the “Lethal (MLC) Concentration 1%” value (Saccharomyces cerevisiae; Sodium lauryl sulfate 200 ppm) was “+”, the “Lethal (MLC) Concentration 1.5%” value (Saccharomyces cerevisiae) was “+” and the “Inhibitory (MIC) Concentration 1.5%” value (Saccharomyces cerevisiae; 48 hrs, 25° C) was “+”. For the same compound, the “Inhibitory (MIC) Concentration 1.5%” value (Saccharomyces cerevisiae; Sodium lauryl sulfate 200 ppm) was “+”, the “Lethal (MLC) Concentration 1.5%” value (Saccharomyces cerevisiae; Sodium lauryl sulfate 200 ppm) was “+” and the “Lethal (MLC) Concentration 2%” value (Saccharomyces cerevisiae) was “+”. The “Inhibitory (MIC) Concentration 2%” value (Saccharomyces cerevisiae; 48 hrs, 25° C) was “+”, the “Inhibitory (MIC) Concentration 2%” value (Saccharomyces cerevisiae; Sodium lauryl sulfate 200 ppm) was “+” and the “Lethal (MLC) Concentration 2%” value (Saccharomyces cerevisiae; Sodium lauryl sulfate 200 ppm) was “+”. The “Lethal (MLC) Concentration 3%” value (Saccharomyces cerevisiae) was “−”, the “Inhibitory (MIC) Concentration 3%” value (Saccharomyces cerevisiae; 48 hrs, 25° C) was “−” and the “Inhibitory (MIC) Concentration 3%” value (Saccharomyces cerevisiae; Sodium lauryl sulfate 200 ppm) was “−”. The “Lethal (MLC) Concentration 3%” value (Saccharomyces cerevisiae; Sodium lauryl sulfate 200 ppm) was “−”, the “Lethal (MLC) Concentration 4%” value (Saccharomyces cerevisiae) was “−” and the “Inhibitory (MIC) Concentration 4%” value (Saccharomyces cerevisiae; 48 hrs, 25° C) was “−”. For the same compound, the “Inhibitory (MIC) Concentration 4%” value (Saccharomyces cerevisiae; Sodium lauryl sulfate 200 ppm) was “−”, the “Lethal (MLC) Concentration 4%” value (Saccharomyces cerevisiae; Sodium lauryl sulfate 200 ppm) was “−” and the “MIC, Concentration of Lactic Esters 0.5%” value (Pseudomonas aeruginosa; SDS 0.0 ppm) was “+”. For the same compound, the “MIC, Concentration of Lactic Esters 0.5%” value (Pseudomonas aeruginosa; SDS 50 ppm) was “−”, the “MIC, Concentration of Lactic Esters 0.5%” value (Pseudomonas aeruginosa; SDS 100 ppm) was “−” and the “MIC, Concentration of Lactic Esters 0.5%” value (Pseudomonas aeruginosa; SDS 200 ppm) was “−”. The “MIC, Concentration of Lactic Esters 1%” value (Pseudomonas aeruginosa; SDS 0.0 ppm) was “+”, the “MIC, Concentration of Lactic Esters 1%” value (Pseudomonas aeruginosa; SDS 50 ppm) was “−” and the “MIC, Concentration of Lactic Esters 1%” value (Pseudomonas aeruginosa; SDS 100 ppm) was “−”. The “MIC, Concentration of Lactic Esters 1%” value (Pseudomonas aeruginosa; SDS 200 ppm) was “−”, the “MIC, Concentration of Lactic Esters 2%” value (Pseudomonas aeruginosa; SDS 0.0 ppm) was “−” and the “MIC, Concentration of Lactic Esters 2%” value (Pseudomonas aeruginosa; SDS 50 ppm) was “−”. For the same compound, the “MIC, Concentration of Lactic Esters 2%” value (Pseudomonas aeruginosa; SDS 100 ppm) was “−”, the “MIC, Concentration of Lactic Esters 2%” value (Pseudomonas aeruginosa; SDS 200 ppm) was “−” and the “MIC, Concentration of Lactic Esters 3%” value (Pseudomonas aeruginosa; SDS 0.0 ppm) was “−”. For the same compound, the “MIC, Concentration of Lactic Esters 3%” value (Pseudomonas aeruginosa; SDS 50 ppm) was “−”, the “MIC, Concentration of Lactic Esters 3%” value (Pseudomonas aeruginosa; SDS 100 ppm) was “−” and the “MIC, Concentration of Lactic Esters 3%” value (Pseudomonas aeruginosa; SDS 200 ppm) was “−”. The “MIC, Concentration of Lactic Esters 4%” value (Pseudomonas aeruginosa; SDS 0.0 ppm) was “−”, the “MIC, Concentration of Lactic Esters 4%” value (Pseudomonas aeruginosa; SDS 50 ppm) was “−” and the “MIC, Concentration of Lactic Esters 4%” value (Pseudomonas aeruginosa; SDS 100 ppm) was “−”. The “MIC, Concentration of Lactic Esters 4%” value (Pseudomonas aeruginosa; SDS 200 ppm) was “−”, the “MIC, Concentration of Lactic Esters 5%” value (Pseudomonas aeruginosa; SDS 0.0 ppm) was “−” and the “MIC, Concentration of Lactic Esters 5%” value (Pseudomonas aeruginosa; SDS 50 ppm) was “−”. The “MIC, Concentration of Lactic Esters 5%” value (Pseudomonas aeruginosa; SDS 100 ppm) was “−” and the “MIC, Concentration of Lactic Esters 5%” value (Pseudomonas aeruginosa; SDS 200 ppm) was “−”.
